Assay results published in PubChem BioAssay AID1671204.

Biological target: Tyrosine-protein kinase ABL1 (Homo sapiens) (UniProt P00519)
Test: ABL1 kinase inhibitors, dose response, biochemical, Z'-LYTE FRET, direct format, recombinant human (AID 1671204)
Conditions: Z'-LYTE FRET kinase assay

Chain of Tyrosine-protein kinase ABL1 (Homo sapiens) (P00519 whole entry, looked up): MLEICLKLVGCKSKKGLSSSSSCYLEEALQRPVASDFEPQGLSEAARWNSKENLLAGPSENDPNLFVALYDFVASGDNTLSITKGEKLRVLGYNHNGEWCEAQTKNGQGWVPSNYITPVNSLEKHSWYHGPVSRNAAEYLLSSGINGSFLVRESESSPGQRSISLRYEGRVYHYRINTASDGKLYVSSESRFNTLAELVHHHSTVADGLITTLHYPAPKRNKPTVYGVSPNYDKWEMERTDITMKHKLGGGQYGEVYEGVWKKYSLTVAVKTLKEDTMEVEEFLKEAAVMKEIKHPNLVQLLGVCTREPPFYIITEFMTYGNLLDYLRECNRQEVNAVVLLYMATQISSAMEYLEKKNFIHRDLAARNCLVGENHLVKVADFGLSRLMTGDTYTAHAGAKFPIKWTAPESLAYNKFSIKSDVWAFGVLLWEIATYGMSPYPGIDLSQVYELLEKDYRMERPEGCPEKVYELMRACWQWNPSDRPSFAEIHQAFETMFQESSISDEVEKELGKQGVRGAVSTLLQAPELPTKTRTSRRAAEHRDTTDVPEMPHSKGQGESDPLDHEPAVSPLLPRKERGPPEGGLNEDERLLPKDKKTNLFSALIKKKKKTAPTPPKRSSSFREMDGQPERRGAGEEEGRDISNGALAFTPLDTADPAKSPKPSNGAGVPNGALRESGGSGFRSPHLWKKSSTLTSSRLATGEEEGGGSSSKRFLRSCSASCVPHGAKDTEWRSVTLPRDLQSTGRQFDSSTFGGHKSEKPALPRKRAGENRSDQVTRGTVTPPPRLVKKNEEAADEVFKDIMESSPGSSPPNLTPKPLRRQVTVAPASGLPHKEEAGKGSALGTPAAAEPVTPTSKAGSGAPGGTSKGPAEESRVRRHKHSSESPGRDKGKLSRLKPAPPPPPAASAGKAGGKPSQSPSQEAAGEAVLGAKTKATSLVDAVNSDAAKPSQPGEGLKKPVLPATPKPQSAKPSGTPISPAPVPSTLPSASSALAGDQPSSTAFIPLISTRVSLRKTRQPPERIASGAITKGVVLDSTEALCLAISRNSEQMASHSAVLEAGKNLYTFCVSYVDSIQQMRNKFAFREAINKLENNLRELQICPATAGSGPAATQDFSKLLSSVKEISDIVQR

With `COc1cc2ncnc(Nc3cccc(Cl)c3)c2cc1OC` the IC50 was 434 nM.
